The assay concerns Hepatitis C virus NS3 helicase. The assay is described as follows: inhibition of NS3 duplex DNA unwinding by HCV helicase – biochemical, fluorescence, FAM-quenched DNA substrate, full-length NS3, primary screen (AID 1347039). The settings on record: recombinant NS3 DNA unwinding, FAM fluorescence rate; at 30 µM; stronger effect = lower value.

Structures are written as SMILES. Results filed as inconclusive are left out. Calls of active or inactive are those of the source.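 How the source made its calls: active means remaining helicase activity under 10% at 30 micromolar; inconclusive means remaining helicase activity between 10% and 50%; inactive means remaining helicase activity over 50%.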

On to `O=C1NC(=S)NC(=O)C1=Cc1cn(C(=O)c2ccccc2Br)c2ccccc12`, for which the remaining helicase activity is 63.5% (inactive).

As for `O=C1NC(=S)NC(=O)C1=Cc1cn(C(=O)c2ccc3ccccc3c2)c2ccccc12`, the remaining helicase activity is 0%.

With `O=C1NC(=S)NC(=O)C1=Cc1cn(C(=O)c2cccc3ccccc23)c2ccc(Cl)cc12`, the remaining helicase activity is 33.4% (inactive).

Consider `COc1ccc2c(c1)c(C=C1C(=O)NC(=S)NC1=O)cn2C(=O)c1ccccc1`, for which the remaining helicase activity was 79.2% (inactive).

`COc1ccc(C(=O)n2cc(C=C3C(=O)NC(=S)NC3=O)c3cc(OC)ccc32)cc1`: the remaining helicase activity is 55.2% (inactive).

For `O=C1NC(=S)NC(=O)C1=Cc1cn(C(=O)c2ccccc2)c2ccc(Cl)cc12`, the remaining helicase activity was 73.2% (inactive).

For the molecule `COc1ccc2c(c1)c(C=C1C(=O)NC(=S)NC1=O)cn2C(=O)c1cccc2ccccc12`, the remaining helicase activity is 0%.

For `O=C1NC(=S)NC(=O)C1=Cc1cn(C(=O)c2ccccc2Br)c2ccc(Br)cc12`, the remaining helicase activity is 53.2% (inactive).

`O=C1NC(=S)NC(=O)C1=Cc1cn(C(=O)c2ccccc2)c2ccccc12`: the remaining helicase activity was 56.3% (inactive).

Consider `O=C1NC(=S)NC(=O)C1=Cc1cn(C(=O)c2ccccc2Br)c2ccc(Cl)cc12`, for which the remaining helicase activity was 83.8% (inactive).

Take `COc1ccc2c(c1)c(C=C1C(=O)NC(=S)NC1=O)cn2C(=O)c1ccc2ccccc2c1`: the remaining helicase activity was 6.3%.

In the case of `COc1ccc(C(=O)n2cc(C=C3C(=O)NC(=S)NC3=O)c3cc(Cl)ccc32)cc1`, the remaining helicase activity is 53.2% (inactive).

In the case of `O=C1NC(=S)NC(=O)C1=Cc1cn(C(=O)c2ccc3ccccc3c2)c2ccc(Cl)cc12`, the remaining helicase activity is 73.3% (inactive).

Regarding `O=C1NC(=S)NC(=O)C1=Cc1cn(C(=O)c2cccc3ccccc23)c2ccccc12`, the remaining helicase activity was 22.3% (inactive).

Consider `COc1ccc(C(=O)n2cc(C=C3C(=O)NC(=S)NC3=O)c3cc(Br)ccc32)cc1`, for which the remaining helicase activity is 61.9% (inactive).

Turning to `O=C1NC(=S)NC(=O)C1=Cc1cn(C(=O)c2ccc(F)cc2)c2ccccc12`, the remaining helicase activity was 51.1% (inactive).

With `COc1ccc(C(=O)n2cc(C=C3C(=O)NC(=S)NC3=O)c3ccccc32)cc1`, the remaining helicase activity was 54.6% (inactive).
